Data taken from ChEMBL document CHEMBL1128364 (J Med Chem, 1995).

What was measured:
[1] = biological target: T1, Oxytocin receptor (Rattus norvegicus, UniProt P70536); test: In vitro activity for the anti-oxytocic activity with out Mg2+.; conditions: read-out: pA2 (converted)
T1 sequence (P70536 whole entry): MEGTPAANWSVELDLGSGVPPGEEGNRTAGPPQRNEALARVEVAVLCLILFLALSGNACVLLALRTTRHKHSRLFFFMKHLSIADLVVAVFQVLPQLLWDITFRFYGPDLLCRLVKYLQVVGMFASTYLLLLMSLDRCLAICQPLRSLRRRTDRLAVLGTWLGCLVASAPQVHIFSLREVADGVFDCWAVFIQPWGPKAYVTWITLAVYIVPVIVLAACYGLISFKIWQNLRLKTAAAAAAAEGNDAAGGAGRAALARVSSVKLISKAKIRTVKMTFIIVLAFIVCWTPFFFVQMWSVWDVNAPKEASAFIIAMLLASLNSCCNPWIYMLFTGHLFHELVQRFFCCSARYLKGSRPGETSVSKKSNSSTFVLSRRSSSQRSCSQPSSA

[2] = biological target: Vasopressin V2 receptor (Rattus norvegicus, UniProt Q00788); test: Antidiuretic activity at V2 receptor; type: tissue-based, Urine; conditions: read-out: pA2 (converted)
Chain of Vasopressin V2 receptor (Q00788 whole entry): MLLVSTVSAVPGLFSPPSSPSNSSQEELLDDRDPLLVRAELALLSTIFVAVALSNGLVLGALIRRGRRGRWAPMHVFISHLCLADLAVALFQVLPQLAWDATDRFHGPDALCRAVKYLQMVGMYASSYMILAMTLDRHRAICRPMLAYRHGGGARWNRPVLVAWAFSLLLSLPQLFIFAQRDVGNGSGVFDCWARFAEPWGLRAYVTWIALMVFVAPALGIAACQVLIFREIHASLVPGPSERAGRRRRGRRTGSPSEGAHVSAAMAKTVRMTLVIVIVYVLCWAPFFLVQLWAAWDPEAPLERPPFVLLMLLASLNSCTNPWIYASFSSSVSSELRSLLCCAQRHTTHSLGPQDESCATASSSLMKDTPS

[3] = biological target: T1, Oxytocin receptor; test: In vitro activity was determined for the anti-oxytocic activity with 0.5 mM Mg2+.; conditions: read-out: pA2 (converted)
[4] = biological target: T2, Vasopressin V1a receptor (Rattus norvegicus, UniProt P30560); test: Anti-vasopressor activity at V1a receptor; conditions: read-out: pA2 (converted)
T2 sequence (P30560 whole entry): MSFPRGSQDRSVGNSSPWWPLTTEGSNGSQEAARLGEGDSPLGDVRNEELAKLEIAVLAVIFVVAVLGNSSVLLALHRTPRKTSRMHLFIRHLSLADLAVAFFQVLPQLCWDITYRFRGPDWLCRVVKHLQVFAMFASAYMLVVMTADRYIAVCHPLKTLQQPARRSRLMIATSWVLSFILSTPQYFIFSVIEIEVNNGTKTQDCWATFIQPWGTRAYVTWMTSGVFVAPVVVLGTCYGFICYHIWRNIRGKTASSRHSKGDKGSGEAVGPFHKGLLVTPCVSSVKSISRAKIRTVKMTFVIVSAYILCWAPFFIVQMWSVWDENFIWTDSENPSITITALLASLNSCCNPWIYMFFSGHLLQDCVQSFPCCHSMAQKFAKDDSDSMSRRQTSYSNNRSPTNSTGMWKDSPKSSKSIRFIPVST

[5] = system: Rattus norvegicus; test: In vivo activity for the anti-oxytocic activity.; type: functional, organism-based; conditions: read-out: pA2 (converted)
[6] = biological target: T3, Oxytocin receptor (Rattus norvegicus) (UniProt P70536); test: (§1) Compound was evaluated for the oxytocic activity with 0.5 mM Mg2+.
T3 sequence (whole entry): T1 sequence (P70536 whole entry)

[7] = biological target: T3, Oxytocin receptor (Rattus norvegicus); test: (§2) Compound was evaluated for the oxytocic activity with out Mg2+.
[8] = biological target: Vasopressin V2 receptor (Rattus norvegicus) (UniProt Q00788); test: Antidiuretic activity at V2 receptor.; conditions: Urine
Chain of Vasopressin V2 receptor (Rattus norvegicus) (Q00788 whole entry): as the sequence (Q00788 whole entry) above

[9] = biological target: T1, Oxytocin receptor; test: as §2; conditions: read-out: pA2 (converted)
[10] = biological target: T1, Oxytocin receptor; test: as §1; conditions: read-out: pA2 (converted)
[11] = biological target: T1, Oxytocin receptor; test: In vitro activity for the anti-oxytocic activity with out Mg2+; conditions: read-out: pA2 (converted)
[12] = biological target: T2, Vasopressin V1a receptor; test: Compound was evaluated for the anti-vasopressor activity at V1a receptor..; conditions: read-out: pA2 (converted)

**Q.** With COc1ccc(C[C@@H]2NC(=O)CC3(CCCCC3)SSC[C@H](C(=O)N3CCC[C@H]3C(=O)N[C@@H](CCCN=C(N)N)C(=O)NCC(N)=O)NC(=O)[C@H](CC(N)=O)NC(=O)[C@H](CCC(N)=O)NC(=O)[C@H](Cc3ccccc3)NC2=O)cc1 as the compound, how does the Kb [1] read?
**A.** 0.0135 µM

**Q.** What about the Kb [2] of the same compound?
**A.** 2.88 µM

**Q.** And the Kb [3]?
**A.** 0.0251 µM

**Q.** And the Kb [4]?
**A.** 0.0135 µM

**Q.** What about the Kb [5] of the same compound?
**A.** 0.251 µM

**Q.** CC[C@H](C)[C@@H]1NC(=O)[C@H](Cc2ccc(O)cc2)NC(=O)[C@@H](N)CSSC[C@@H](C(=O)N2CCC[C@H]2C(=O)N[C@@H](CC(C)C)C(=O)NCC(N)=O)NC(=O)[C@H](CC(N)=O)NC(=O)[C@H](CCC(N)=O)NC1=O was tested. Which Oxytocic activity [6] did it give?
**A.** 486 U mg-1

**Q.** What about the Oxytocic activity [7] of the same compound?
**A.** 520 U mg-1

**Q.** And the Antidiuretic activity [8]?
**A.** 4 U mg-1

**Q.** Which Kb [9] does the source give for NC(=O)CC[C@@H]1NC(=O)[C@H](Cc2ccccc2)NC(=O)[C@H](Cc2ccc(O)cc2)NC(=O)[C@@H](N)CSSC[C@H](C(=O)N2CCC[C@H]2C(=O)N[C@@H](CCCN=C(N)N)C(=O)NCC(N)=O)NC(=O)[C@H](CC(N)=O)NC1=O here?
**A.** 0.214 µM

**Q.** And the Kb [10]?
**A.** 5.75 µM

**Q.** Which Kb [11] does the source give for COc1ccc(C[C@@H]2NC(=O)CC3(CCCCC3)SSC[C@@H](C(=O)N3CCC[C@H]3C(=O)N[C@@H](CCCN=C(N)N)C(=O)NCC(N)=O)NC(=O)[C@H](CC(N)=O)NC(=O)[C@H](CCC(N)=O)NC(=O)[C@H](Cc3ccccc3)NC2=O)cc1 here?
**A.** 0.00741 µM

**Q.** And the Kb [3]?
**A.** 0.0575 µM

**Q.** What about the Kb [12] of the same compound?
**A.** 0.0024 µM
